Where a SMILES comes first, the peptide text is derived from it. [ ]: non-standard residue; d: D form. The star is where a group is joined. Ac5c = NC1(C(=O)O)CCCC1; Aib = CC(C)(N)C(=O)O; Butyryl = CCCC(=O)*
Legend:
Format in all cases: cell-based
[1] = system: Caspase-3 in PA-1 (Ovary) cells; assay: Caspase-3 induction, colorimetric DEVD-pNA, PA-1; settings: 6 hours, each peptide 10^-8 M
Method: PA-1 (Ovary) cells were cultured in 25 cm^2 tissue culture flasks at 37° C. in a humidified incubator containing 5% CO2. When cultures reached pre-confluence individual peptides of the combination and different combinations of the peptides as shown in Table VII were added to different flasks such that the final concentration of each peptide in the flask was 10^−8 M. The untreated flasks served as controls. The cells were incubated with drug for 6 hours.
After 6 hours of incubation cells were collected by trypsin treatment followed by centrifugation at 2000 r.p.m. for 10 minutes. The supernatant was gently removed and discarded and Lysis Buffer was added to the cell pellet (25 ul of lysis buffer per 1×10^4 cells I a 15 ml conical tube) and incubated on ice for 10 minutes and centrifuged at 10,000-×g for 1 minute. 50 ul of supernatant(cell lysate) was transferred to the wells of a 96-well plate. 2×Reaction buffer was prepared by adding 10 ul of fresh DTT stock per 1 ml of 2×Reaction Buffer. […] Following incubation the plate was read on a microplate reader at 405 nm-wavelength light the level of caspase enzymatic activity in the cell lysate was directly proportional to the color reaction. The induction of caspase activity by the subcombinations was calculated as a percentage of control using the formula [(Sample OD/Control OD)−1]*100.

[2] = system: cAMP in breast cancer cells (MF7); assay: cAMP levels by enzyme linked sandwich immunosorbent assay; settings: 30 minutes, final peptide concentration 10^-9 M, Forskolin 1 uM
Method: Enzyme linked sandwich immunosorbent assay was carried out on breast cancer cells (MF7) to study the modulation in levels of cAMP upon treatment with the peptides and their combinations. The cells were cultured in sterile 6 well plates at a density of 0.5×10^6/well in DMEM supplemented with 10% FCS, and allowed to adhere overnight. The medium was changed to DMEM and the cells were treated with appropriate concentrations of the peptide and its combinations, as shown in Table-IV, for 30 minutes, such that in each case the final peptide concentration was 10^−9M.
The cells were coincubated with Forskolin at a concentration of 1 uM. The cells were scraped using a cell scraper and pelleted. The cell pellet was suspended in appropriate resuspension buffer (50 mM Tris, containing EDTA, 0.2 mM phenyl methyl sulfonyl fluoride (PMSF), 1 ug/ml pepstatin and 0.5 ug/ml leupeptin adjusted to pH 7.4). The cell extracts were transferred to microcentrifuge tubes and centrifuged for 5 minutes at 10000×g. cAMP standards ranging in concentrations from 200 units/ml to 0 units/ml were prepared immediately prior to the start of the assay. Fluorescein isothiocyanate (FITC) conjugated monoclonal antibody directed to cAMP was added to microtitre wells precoated with primary monoclonal antibody against cAMP. 50 ul of sample lysates, and cAMP standards were added in duplicates in the microtitre wells containing both the monoclonals to cAMP. The wells were incubated at room temperature for 2 hours. The microtitre wells were washed thrice with appropriate wash buffer (PBS 50 mM, with Tween 0.5%) and the appropriate dilution of anti FITC horse radish peroxidase conjugate was added and incubated for 30 minutes. The microtitre wells were washed thrice with the wash buffer and subsequently with distilled water. Tetra-methylbenzidine was added to each well and incubated in dark for 30 minutes at room temperature. The absorbance was measured in each well at dual wavelength of 450/595 nm within 30 minutes of the addition of stop solution and the amount of cAMP present in the cell samples calculated.

[3] = system: VEGF secreted by human breast adenocarcinoma cells (MDA.MB.453); assay: VEGF secretion ELISA; settings: 4 hours, each peptide 10^-8 M
Method: Human breast adenocarcinoma cells (MDA.MB.453) were plated at the density of 8-10×10^5 cells per 2 ml in a six well plate. After an overnight incubation of cells at 37° C., individual peptides and different combinations of the peptides as shown in Table VIII were added to different wells such that the final concentration of each peptide was 10^−8 M. The untreated wells served as controls. The plates were incubated for 4 hours at 37° C. The medium was collected from all the wells (control and treated) and spun down at 2000 r.p.m to remove the cellular material. The supernatant was collected and used for ELISA (Quantikine human VEGF, R&D Systems). The assay employs the quantitative sandwich enzyme immunoassay technique. A monoclonal antibody specific for VEGF has been pre-coated onto a microplate. Standards and samples were pipeted into the wells and VEGF present was bound by the immobilized antibody. After washing away the unbound substances, an enzyme-linked polyclonal antibody specific for VEGF was added to the wells. Following a wash to remove any unbound antibody-enzyme reagent, a substrate solution was added to the wells and color developed in proportion to the amount of VEGF bound in the initial step. The optical density of each well was determined within 30 minutes using a microplate reader set to 450 nm and reference wavelength at 540 nm.

[4] = system: tyrosine phosphatase in pancreatic cancer cells (MiaPaCa2); assay: Tyrosine phosphatase induction, colorimetric; settings: 30 minutes, final peptide concentration 10^-9 M
Method: The quantitation of tyrosine phosphatase was carried out colorimetrically by using their synthetic biotin labeled tyrosine phosphorylated peptide substrates. The enzyme reaction was quenched by the addition of a specific inhibitor, and the phosphorylated and dephosphorylated substrate is immobilized by binding to the streptavidin coated microtitre plate. The fraction of the unmetabolized substrate is determined by its anti phospho tyrosine antibody directly conjugated to peroxidase.
The cells were cultured in sterile 6 well plates at a density of 0.5×10^6/ well in DMEM supplemented with 10% FCS, and allowed to adhere overnight. The medium was changed to DMEM. The cells were treated with appropriate concentrations peptide and their combinations shown in Table VI, for 30 minutes, such that in each case the final peptide concentration was 10^−9M.
The cells were lysed in appropriate lysis buffer (50 mM Tris, containing 0.2 mM PMSF, 1 ug/ml pepstatin and 0.5 ug/ml leupeptin adjusted to pH 7.4). The cell extracts were transferred to microcentrifuge tubes and centrifuged for 5 minutes at 10000×g.
The quantitation of phosphatase enzyme activity was performed with 30 ul of specific substrates and the reaction was quenched with the addition of 100 uM sodium orthvanadate. […] After 3 washings, 100 ul of the substrate POD was added to the wells, and the absorbance was read at 405 nm.

Compound	% INDUCTION of Caspase-3 [1]	Camp (% of Control) [2]	% INHIBITION of VEGF secretion [3]	% Induction of Tyrosine phosphatase [4]
C[C@@H](O)[C@H](NC(=O)[C@H]1NC(=O)C2(CCCC2)NC(=O)[C@H](CCCN)NC(=O)[C@@H](Cc2c[nH]c3ccccc23)NC(=O)[C@H](Cc2ccc(O)cc2)NC(=O)[C@@H](NC(=O)[C@H](N)Cc2ccccc2)CSSC1(C)C)C(N)=O [SEQ ID NO:4, D-Phe-Cys-Tyr-D-Trp-Om-Ac5c -Pen-Thr-NH2]	12.4%	15%	12.4 ± 2.3%	10%
CCCC(=O)N[C@H](Cc1ccccc1)C(=O)N[C@@H](CCC(N)=O)C(=O)N[C@@H](Cc1c[nH]c2ccccc12)C(=O)N[C@@H](C)C(=O)N[C@H](C(=O)NC(C)(C)C(=O)N[C@@H](Cc1c[nH]cn1)C(=O)N[C@@H](CC(C)C)C(N)=O)C(C)C [SEQ ID NO:2, Butanoyl-D-Phe-Gln-Trp-Ala-Val-Aib-His-Leu-NH2] (Butyryl-[dF]QWAV[Aib]HL-NH2)		18%		
CSCC[C@H](NC(=O)[C@@H](N)CC(C)C)C(=O)N[C@@H](Cc1ccc(O)cc1)C(=O)N1CCC[C@H]1C(=O)N[C@H](C(=O)N[C@@H](Cc1ccc(O)cc1)C(=O)N[C@@H](CC(C)C)C(=O)N[C@@H](CCCCN)C(=O)O)[C@@H](C)O [SEQ ID NO:1, Leu-Met-Tyr-Pro-Thr-Tyr-Leu-Lys-OH] (H-LMYPTYLK-OH; N-terminus assumed)		30%		
CC(C)C[C@H](NC(=O)[C@@H](Cc1c[nH]c2ccccc12)NC(=O)[C@H](Cc1ccccc1)NC(=O)[C@@H](Cc1c[nH]c2ccccc12)NC(=O)[C@H](CCC(N)=O)NC(=O)[C@@H](Cc1ccccc1)NC(=O)[C@@H]1CCCN1C(=O)[C@H](CCCCN)NC(=O)[C@@H]1CCCN1C(=O)[C@H](N)CCCNC(=N)N)C(=O)NC1(C(N)=O)CCCC1 [SEQ ID NO:3, D-Arg-Pro-Lys-Pro-D-Phe-Gln-D-Trp-Phe-D-Trp-Leu-Ac5c-NH2] (H-[dR]PKP[dF]Q[dW]F[dW]L[Ac5c]-NH2; N-terminus assumed)	19.5%	14%	17.5 ± 1.9%	12%

Reference: patent US20030050233A1, “Peptide combination for the treatment of cancer” (DABUR ONCOLOGY PLC, priority 2001, published 2003)
